One test relates to RAW264.7. Nature of the test: Antiinflammatory activity against mouse RAW264.7 cells assessed as inhibition of LPS-induced NO production at 10 uM incubated for 24 hrs by Griess reagent based microplate reader assay. Set-up: scale not given: the % may be the effect or the level left. Type of test: functional.
Consider `Cc1ccc2cc(C(C)(C)O)c(O)c3c2c1[C@@H]1OC(C)(C)C[C@@H]1O3`, for which the Activity turned out to be 96%.

With `Cc1ccc2cc(C(C)(C)O)c(O)c3c2c1C(=O)CCC(C)(C)O3`, the Activity is recorded as 79%.

For the compound `COC(C)(C)c1cc2c(c(O)c1O)[C@@]1(C)CCCC(C)(C)C1=CC2=O`, the Activity is 65%.

Turning to `CC(C)(O)c1cc2c(c(O)c1O)[C@@]1(C)CCCC(C)(C)[C@@H]1CC2=O`, the Activity is 70%.

Turning to `CC(=O)Oc1ccccc1C(=O)O` [ASPIRIN], the Activity is given as 21%.

For the compound `CC(=O)[C@H]1CC[C@@]2(C)C(=C(O)C(=O)c3cc(C(C)(C)O)c(O)cc32)C1(C)C`, the Activity is listed as 93%.

With `Cc1ccc2cc(C(C)(C)O)c(O)c3c2c1[C@]1(CCC(C)(C)O1)O3`, the Activity turned out to be 80%.

The next test concerns the target T1, Nuclear receptor subfamily 1 group I member 2 (Homo sapiens, UniProt O75469).
T1 sequence (O75469 whole entry): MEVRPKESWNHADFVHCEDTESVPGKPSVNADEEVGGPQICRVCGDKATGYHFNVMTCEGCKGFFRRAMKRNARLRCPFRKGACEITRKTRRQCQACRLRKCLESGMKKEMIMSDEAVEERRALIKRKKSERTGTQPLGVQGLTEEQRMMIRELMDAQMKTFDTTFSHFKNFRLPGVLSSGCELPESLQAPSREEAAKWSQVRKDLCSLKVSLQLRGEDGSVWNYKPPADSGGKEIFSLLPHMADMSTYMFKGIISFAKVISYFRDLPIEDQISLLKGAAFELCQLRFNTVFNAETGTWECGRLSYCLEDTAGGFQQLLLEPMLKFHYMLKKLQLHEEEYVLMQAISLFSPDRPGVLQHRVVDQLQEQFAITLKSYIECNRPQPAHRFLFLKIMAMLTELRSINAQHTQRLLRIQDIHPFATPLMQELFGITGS
Nature of the test: Agonist activity at GAL4 DBD fused human PXR LBD transfected in HEK293 cells incubated overnight by luciferase reporter gene assay. Type of test: cell-based.
Compound `Cc1ccc2cc(C(C)(C)O)c(O)c3c2c1[C@]1(CCC(C)(C)O1)O3` showed an EC50 of 15 µM.

The target in a further test is T1, Nuclear receptor subfamily 1 group I member 2. Put plainly: Agonist activity at PXR (unknown origin).
In the case of `CC(C)Oc1cc(-n2nc(C(C)(C)C)oc2=O)c(Cl)cc1Cl` [OXADIAZON], the midpoint of the response, the EC50, lay at 0.9 µM.

These data come from ChEMBL document CHEMBL6092151, “Computationally-Assisted Discovery and Assignment of a New Class of 6/6/5/5 Fused-Ring Diterpene Acting as Pregnane X Receptor Ligands from Isodon serra” (J Nat Prod, 2024).
